PubChem BioAssay (NCI)
“And” between values parts separate entries of the source, which are not always exact repeats. Equal values may be shown once.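 Briefly, cells in 96-well plates were exposed to five compound concentrations for 48 h, and endpoints were estimated by linear interpolation. At the GI50, growth is halved. TGI: concentration producing complete growth inhibition.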

Assays:
Experiment in all cases: inhibition of tumour cell growth, NCI panel, 48 h
OVCAR-4 ovarian = system: OVCAR-4 ovarian
A549 NSCLC = system: A549 NSCLC
HOP-62 NSCLC = system: HOP-62 NSCLC
EKVX NSCLC = system: EKVX NSCLC
LXFL 529 NSCLC = system: LXFL 529 NSCLC
CAKI-1 renal = system: CAKI-1 renal
HCT-15 colon = system: HCT-15 colon
SNB-75 CNS = system: SNB-75 CNS
KM20L2 colon = system: KM20L2 colon
HS 578T breast = system: HS 578T breast

Row | Compound | TGI (OVCAR-4 ovarian) [µM] | TGI (A549 NSCLC) [µM] | TGI (HOP-62 NSCLC) | TGI (EKVX NSCLC) [µM] | TGI (LXFL 529 NSCLC) [µM] | TGI (CAKI-1 renal) | TGI (HCT-15 colon) [µM] | TGI (SNB-75 CNS) [µM] | GI50 (A549 NSCLC) [µM] | GI50 (EKVX NSCLC) [µM] | GI50 (CAKI-1 renal) [µM] | TGI (KM20L2 colon) [µM] | GI50 (SNB-75 CNS) | GI50 (OVCAR-4 ovarian) [µM] | GI50 (HOP-62 NSCLC) [µM] | GI50 (LXFL 529 NSCLC) [µM] | GI50 (KM20L2 colon) [µM] | GI50 (HCT-15 colon) [µM] | GI50 (HS 578T breast) [µM] | TGI (HS 578T breast) [µM]
1 | NCP(=O)(O)OCC(=O)O | > 100 | > 100 | > 100 µM | > 100 | > 100 | > 100 µM | > 100 | > 100 |  |  |  |  |  |  |  |  |  |  |  | 
2 | COc1cc(C2c3cc4c(cc3[C@@H](Nc3ccc(N)cc3)C3COC(=O)[C@H]23)OCO4)cc(OC)c1O (some centres undefined) | 41.6 | 3.46 | 0.865 µM and 2.5 µM | 10.9 | 31 | 0.903 µM and 5.93 µM | 22.6 |  | 0.317 | 0.953 | 0.326 | 21.4 | 0.347 µM |  |  |  |  |  |  | 
3 | Cn1ccnc1C[N-]Cc1nccn1C.O=[N+]([O-])[O-].O=[N+]([O-])[O-].[Cu+2] | > 100 | > 100 | > 100 µM | > 100 | > 100 |  |  | > 100 | > 100 | > 100 |  | > 100 | > 100 µM | 2.49 | > 100 | > 100 | > 100 |  |  | 
4 | CC(=O)CC(=O)/C=C/c1cccs1 | > 100 | > 100 | > 100 µM | > 100 | > 100 | > 100 µM | > 100 |  |  |  |  | > 100 |  |  |  |  |  |  |  | 
5 | CN(C)CCNc1nc(-c2cccs2)cc(-c2cccs2)n1 |  | 32.4 | 40.7 µM |  | 28.1 |  | 33.2 | 68.2 |  |  |  |  |  |  |  |  |  |  |  | 
6 | COc1ccc2nc3cccc(C(=O)NCCN(C)C)c3nc2c1 | 8.72 | > 100 | 3.76 µM | 12.7 |  | > 20.9 µM | 6.15 | 21.6 |  |  |  | 6.46 |  |  |  |  |  |  |  | 
7 | C1C[OH+]CC[OH+]CC[OH+]CC[OH+]CC[OH+]CC[OH+]1.[Cl-].[Nb+5] | > 100 | > 100 | > 100 µM |  |  | > 100 µM | > 100 | > 100 | > 100 |  | > 100 | > 100 | 39.6 µM | > 100 | > 100 |  | > 100 | > 100 |  | 
8 | Cc1ccc(NC(=O)CCC(=O)C(C#N)c2ccccc2)cc1C (centres undefined) | > 100 | > 100 |  | > 100 | > 100 | > 100 µM | > 100 |  |  |  |  | > 100 |  |  |  |  |  |  |  | 
9 | CC(=O)O[C@H]1C=CC23OC(=O)[C@]1(C)[C@H]2[C@H](C(=O)O)C12CC(=O)[C@@](CO)(CC[C@H]13)C2 | > 100 | > 100 | > 100 µM | > 100 | > 100 | > 100 µM | > 100 |  |  |  |  | > 100 |  |  |  |  |  |  |  | 
10 | NC(=O)N/N=C(/c1nc2ccc([N+](=O)[O-])cc2[nH]c1=O)C(O)c1ccco1 (centres undefined) | > 100 | > 100 | 94.6 µM |  | > 100 | > 100 µM | 61 | > 100 |  |  |  | 66.4 |  |  |  |  |  |  |  | 
11 | CCOC(=O)/C(C#N)=C/Nc1ccc(-c2nc3ccccc3[nH]2)cc1 | > 100 | > 100 | 74.7 µM | > 100 |  | 74.1 µM | > 100 | 56.7 | 52.7 | 34.4 | 26.6 |  | 24.2 µM | 31.4 | 31.1 |  |  | 34.1 | 24.3 | 79.5
12 | CC1(C)[C@@H](OC(N)=O)C=C[C@]2(C=O)[C@H]3CC[C@]4(C)[C@@H](c5ccc(=O)oc5)[C@@H](Cl)C[C@]4(O)C3=CC[C@@H]12 | 0.0121 | 0.00752 | 0.00699 µM | 0.0102 |  | 0.00846 µM | 0.0129 | 0.00932 | 0.00361 | 0.00415 | 0.00446 |  | 0.00407 µM | 0.004 | 0.00331 |  |  | 0.00555 | < 0.0025 | 0.0146
13 | COc1ccc2c(c1)OCCC1=C2SCC2(C)CCN=C12 (centres undefined) | > 100 | > 100 | > 100 µM |  | > 100 |  |  | > 100 |  |  |  | > 100 |  |  |  |  |  |  |  | 
14 | Oc1ccc(Cl)cc1-c1cc(-c2ccc(F)cc2)n[nH]1 | > 100 | 7.2 | 10.9 µM | 14 |  | 9.14 µM | 22.5 | 9.19 | 2.11 | 1.4 | 1.77 |  | 2.07 µM | 0.593 | 2.98 |  |  | 0.416 | 1.71 | 6.65
15 | CC(=O)n1ccc2c(Cl)ncnc21 |  | > 100 | > 100 µM | > 100 | > 100 | > 100 µM | > 100 | > 100 |  |  |  | > 100 |  |  |  |  |  |  |  | 
16 | COC(=O)[C@]12CC[C@@H](C)[C@H](C)[C@@H]1C1=CC[C@@H]3[C@@]4(C)CC(=O)[C@H](OC(=O)c5ccco5)[C@@]5(C)COC(=C45)C[C@@]3(C)[C@]1(C)CC2 | > 100 | > 100 | > 100 µM | > 100 |  | > 100 µM | > 100 | > 100 | 6.31 | 2.09 | 0.729 |  | 6.3 µM | 2.12 | 17.6 |  |  | 0.54 | > 100 | > 100
17 | N=C(N)SCCc1ccccn1 | > 100 | > 100 | > 100 µM | > 100 |  | > 100 µM | > 100 | > 100 |  |  |  |  | 39.7 µM and > 100 µM |  |  |  |  |  |  | > 100
18 | N#C/C(=C\c1ccccc1Br)C(=O)c1ccccc1 | 58.8 | > 70 | > 100 µM | > 100 | > 58.3 | > 100 µM | > 47.2 |  |  |  |  | > 100 |  |  |  |  |  |  |  | 
19 | O=[N+]([O-])c1cc(F)c2cccnc2c1O | 65.5 | > 100 | > 100 µM | > 100 |  | 25.8 µM | > 100 | > 100 | 6.94 | 22.9 | 3.82 |  | 4 µM | 6.63 | 13.6 |  |  | 6.73 | 35.8 | > 100
20 | CCOC(=O)Cc1csc(NC(=O)COC(=O)c2ccc(OC)cc2)n1 | > 100 | > 100 | > 100 µM | > 100 |  | > 100 µM | > 100 | > 56.6 | > 100 | 52.9 | > 100 |  | 28.3 µM | 98.2 | > 78.8 |  |  | > 100 | > 100 | > 100
